Assays:
[1] = Protection against clonic seizures caused by pentylenetetrazole in rats; type: in vivo, rat; conditions: pentylenetetrazole 23 mg/kg i.v. at 30 or 60 min
Protocol: The anti-anxiety and anticonvulsant properties of the novel compounds of the present invention have been established in a test which indicates anxiolytic activity by the measure of protection from convulsions resulting from the administration of pentylenetetrazole. Single or graded dose levels of the test compounds were administered orally or intraperitoneally in a 2% starch vehicle, containing 0.5% v/v polyethylene glycol and one drop of Polysorbate 80 to groups of at least 4 rats. At 30 or 60 minutes, the rats were treated intravenously with pentylenetetrazole at a dose of 23 mg/kg of body weight. This dose is estimated to cause clonic seizures in 99% of unprotected rats. It has Been reported [R. T. Hill and D. H. Tedeschi, "Animal Testing and Screening Procedures in Evaluating Psychotropic Drugs" in "An Introduction to Psychopharmacology",Eds. R. R. Rech and K. E. Moore, Raven Press, N.Y., pp 237-288 (1971)]that there is a high degree of correlation between antagonism of pentylenetetrazole seizures in rats and anti-anxiety or anticonvulsant effects in higher warm-blooded animals.

[2] = Nonconditioned passive avoidance (conflict) test in rats; type: in vivo, rat (Wistar strain); conditions: 25 mg/kg oral or i.p., 30 to 60 min, active if number of shocks received is significantly higher than control group by Mann-Witney U test
Protocol: Another test which has been used to assess antianxiety effects is a nonconditioned passive avoidance procedure described by [J. R. Vogel, B. Beer and D. E. Clody, "A Simple and Reliable Conflict Procedure for Testing Anti-Anxiety Agents", Psychopharmacologia, 21, 1-7(1971)]. A conflict situation is induced in rats by a modification of this method.
Groups of 6 naive, Wistar strain rats, weighing 200-240 g each were deprived of water for 48 hours and food for 24 hours. The test compounds were administered in single or graded, oral or intraperitoneal doses, suspended in a 2% starch vehicle containing 0.5% v/v polyethylene glycol and one drop of polysorbate 80. Control animals received the vehicle alone. At 30 to 60 minutes each rat was placed in an individual plexiglass chamber. Water was available ad libitum from a tap located in the rear of the chamber. A 0.7 milliampere DC shocking current was established between the stainless steel grid floor and the tap. After 20 licks of nonshocked drinking, a shock was delivered for 2 seconds and then further shocks were delivered on a ratio of one shock for 2 seconds for every 20 licks. This was continued for a total of 3 minutes. The number of shocks taken by each rat during the 3 minute interval was recorded and compared to a control group. […]

[3] = tested on: brain-specific receptors of rats (3H-benzodiazepine binding); assay: Inhibition of the binding of 3H-benzodiazepine to brain-specific receptors of rats; parameters: species or system rat (Wistar strain); conditions: rat cortex P2-fraction; 3H-diazepam 1.5 nM or 3H-flunitrazepam 1.0 nM; pH 7.4; 30 min in ice; test concentration not given
[4] = Rattus norvegicus, 25 mg/kg oral or i.p., read-out: % of Rats Protected

Structure (SMILES): Cc1cn(-c2cccc(-c3ccnc4c(C(=O)c5ccccc5)cnn34)c2)cn1 [Example 14, [7-[3-(4-methyl-1H-imidazol-1-yl)-phenyl]pyrazolo[1,5-a]pyrimidin-3-yl]-phenylmethanone compd. with dichloromethane (20:1)]
- responders at 25 mg/kg [1, 4]: 100%
- Nonconditional Passive Avoidance Test result [2]: active
- % Inhibition [3]: 93%

Structure (SMILES): O=C(c1ccco1)c1cnn2c(-c3cccc(-n4ccnc4)c3)ccnc12 [Example 5, 2-furanyl[7-[3-(1H-imidazol-1-yl)-phenyl]-pyrazolo[1,5-a]pyrimidin-3-yl]methanone]
- responders at 25 mg/kg [1, 4]: 100%
- Nonconditional Passive Avoidance Test result [2]: active
- % Inhibition [3]: 72%

Structure (SMILES): O=C(c1ccccc1)c1cnn2c(-c3cccc(-n4ccnc4)c3)ccnc12 [Example 4, [7-[3-(1H-imidazol-1-yl)phenyl]pyrazolo[1,5-a]pyrimidin-3-yl]phenylmethanone]
- responders at 25 mg/kg [1, 4]: 100%
- Nonconditional Passive Avoidance Test result [2]: inactive
- % Inhibition [3]: 94%

Structure (SMILES): O=C(c1ccncc1)c1cnn2c(-c3cccc(-n4ccnc4)c3)ccnc12 [Example 17, [7-[3-(1H-imidazol-1-yl)-phenyl]pyrazolo[1,5-a]pyrimidin-3-yl]-4-pyridinylmethanone]
- % of Rats Protected (result in words) ([1]; 25 mg/kg oral or i.p.): inactive
- Nonconditional Passive Avoidance Test result [2]: active
- % Inhibition [3]: 90%

Structure (SMILES): c1cc(-c2ccnc3ccnn23)cc(-n2ccnc2)c1 [Example 6, 7-[3-(1H-imidazol-1-yl)-phenyl]pyrazolo[1,5-a]pyrimidine]
- responders at 25 mg/kg [1, 4]: 0%
- Nonconditional Passive Avoidance Test result [2]: inactive
- % Inhibition [3]: 72%

Structure (SMILES): CCc1nccn1-c1cccc(-c2ccnc3c(C(=O)c4ccccc4)cnn23)c1 [Example 15, [7-[3-(2-ethyl-1H-imidazol-1-yl)-phenyl]pyrazolo[1,5-a]pyrimidin-3-yl]-phenylmethanone]
- % of Rats Protected (result in words) ([1]; 6.25 mg/kg oral or i.p.): active
- Nonconditional Passive Avoidance Test result [2]: active
- % Inhibition [3]: 98%

Structure (SMILES): Cc1nccn1-c1cccc(-c2ccnc3c(C#N)c(N)nn23)c1.Cl [Example 19, 2-amino-7-[3-(2-methyl-1H-imidazol-1-yl)phenyl]pyrazolo-[1,5-a]pyrimidine-3-carbonitrile monohydrochloride]
- responders at 3.1 mg/kg ([1]; Rattus norvegicus, 3.1 mg/kg oral or i.p., read-out: % of Rats Protected): 50%
- Nonconditional Passive Avoidance Test result [2]: active

Structure (SMILES): Cc1nccn1-c1cccc(-c2ccnc3c(C#N)cnn23)c1 [Example 2, 7-[3-(2-methyl-1H-imidazol-1-yl)-phenyl]pyrazolo[1,5-a]pyrimidine-3-carbonitrile compd. with dichloromethane 20:1]
- responders at 25 mg/kg [1, 4]: 75%
- Nonconditional Passive Avoidance Test result [2]: inactive
- % Inhibition [3]: 88%

Structure (SMILES): Cc1nccn1-c1cccc(-c2ccnc3c(Cl)cnn23)c1 [Example 12, 3-chloro-7-[3-(2-methyl-1H-imidazol-1-yl)phenyl]pyrazolo[1,5-a]pyrimidine compd. with dichloromethane (20:1)]
- responders at 25 mg/kg [1, 4]: 100%
- Nonconditional Passive Avoidance Test result [2]: active

Structure (SMILES): Cc1cn(-c2cccc(-c3ccnc4c(C(=O)c5ccco5)cnn34)c2)cn1 [Example 9, 2-furanyl[7-[3-(4-methyl-1H-imidazol-1-yl)phenyl]pyrazolo[1,5-a]pyrimidin-3-yl]methanone compd. with dichloromethane (20:1)]
- responders at 25 mg/kg [1, 4]: 50%
- Nonconditional Passive Avoidance Test result [2]: active
- % Inhibition [3]: 98%

Structure (SMILES): Cc1nccn1-c1cccc(-c2ccnc3c(C(=O)c4ccco4)cnn23)c1 [Example 7, 2-furanyl[7-[3-(2-methyl-1H-imidazol-1-yl)phenyl]pyrazolo[1,5-a]pyrimidin-3-yl]methanone compd. with dichloromethane (100:3)]
- responders at 25 mg/kg [1, 4]: 25%
- Nonconditional Passive Avoidance Test result [2]: active
- % Inhibition [3]: 101%

Structure (SMILES): CCOC(=O)c1cnn2c(-c3cccc(-n4ccnc4C)c3)ccnc12 [Example 21, ethyl 7-[3-(2-methyl-1H-imidazol-1-yl)phenyl]pyrazolo[1,5-a]pyrimidine-3-carboxylate]
- responders at 25 mg/kg [1, 4]: 0%
- Nonconditional Passive Avoidance Test result [2]: inactive
- % Inhibition (result in words) [3]: inactive

Structure (SMILES): Cc1cn(-c2cccc(-c3ccnc4c(C#N)cnn34)c2)cn1 [Example 20, 7-[3-(4-methyl-1H-imidazol-1-yl)-phenyl]pyrazolo[1,5-a]pyrimidine-3-carbonitrile]
- responders at 25 mg/kg [1, 4]: 0%
- Nonconditional Passive Avoidance Test result [2]: inactive

Structure (SMILES): Cc1nccn1-c1cccc(-c2ccnc3c(C(=O)c4cccs4)cnn23)c1 [Example 10, [7-[3-(2-methyl-1H-imidazol-1-yl)-phenyl]pyrazolo[1,5-a]pyrimidin-3-yl]-2-thienyl-methanone]
- responders at 25 mg/kg [1, 4]: 100%
- Nonconditional Passive Avoidance Test result [2]: active
- % Inhibition [3]: 99%

Structure (SMILES): Cc1nccn1-c1cccc(-c2ccnc3c(C(=O)c4ccccc4)cnn23)c1 [Example 1, [7-[3-(2-Methyl-1H-imidazol-1-yl)phenyl]pyrazolo[1,5-a]pyrimidin-3-yl]phenylmethanone compound with dichloromethane (20:1;)]
- responders at 25 mg/kg [1, 4]: 100%
- Nonconditional Passive Avoidance Test result [2]: active
- % Inhibition [3]: 98%

Structure (SMILES): N#Cc1cnn2c(-c3cccc(-n4ccnc4)c3)ccnc12 [Example 3, 7-[3-(1H-imidazol-1-yl)phenyl]-pyrazolo[1,5-a]pyrimidine-3-carbonitrile]
- responders at 25 mg/kg [1, 4]: 100%
- Nonconditional Passive Avoidance Test result [2]: active
- % Inhibition [3]: 44%

Structure (SMILES): Cc1cn(-c2cccc(-c3ccnc4c(C(=O)c5cccs5)cnn34)c2)cn1 [Example 8, [7-[3-(4-methyl-1H-imidazol-1-yl)-phenyl]pyrazolo[1,5-a]pyrimidin-3-yl]-2-thienyl-methanone]
- responders at 25 mg/kg [1, 4]: 75%
- Nonconditional Passive Avoidance Test result [2]: active
- % Inhibition [3]: 75%

Structure (SMILES): Cc1nccn1-c1cccc(-c2ccnc3ccnn23)c1 [Example 13, 7-[3-(2-methyl-1H-imidazol-1-yl)-phenyl]pyrazolo[1,5-a]pyrimidine]
- responders at 25 mg/kg [1, 4]: 50%
- Nonconditional Passive Avoidance Test result [2]: active

Structure (SMILES): O=C(c1cccs1)c1cnn2c(-c3cccc(-n4ccnc4)c3)ccnc12 [Example 11, [7-[3-(1H-imidazol-1-yl)phenyl]pyrazolo[1,5-a]pyrimidin-3-yl]-2-thienyl-methanone]
- responders at 25 mg/kg [1, 4]: 50%
- Nonconditional Passive Avoidance Test result [2]: inactive
- % Inhibition [3]: 100%

Source: US5538977A, “3-Substituted-7-[3-(imidazol-1-yl)phenyl]-pyrazolo[1,5-a]pyrimidines” (American Cyanamid Company, priority 1995, dated 1996)
